# Measured values from ChEMBL document CHEMBL1201861, “Genomics of Drug Sensitity in Cancer screening data, Wellcome Trust Sanger Institute”.
# What was measured:
# Assay in all cases: cells
# CTV-1 = format: functional, cell-based; conditions: Homo sapiens;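 note: growth inhibition of the cell line, read out with a cell viability assay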
# Description: SANGER: Inhibition of human CTV-1 cell growth in a cell viability assay.
# DB = format: functional, cell-based; conditions: Homo sapiens
# Description: SANGER: Inhibition of human DB cell growth in a cell viability assay.
# DOHH-2 = format: functional, cell-based; conditions: Homo sapiens;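 note: growth inhibition of human DOHH-2 cells, read out with a cell viability assay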
# Description: SANGER: Inhibition of human DOHH-2 cell growth in a cell viability assay.
# EFM-19 = format: functional, cell-based, Homo sapiens; conditions: Homo sapiens, EFM-19;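 note: growth inhibition of human EFM-19 cells, measured in a cell viability assay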
# Description: SANGER: Inhibition of human EFM-19 cell growth in a cell viability assay.
# ES4 = format: functional, cell-based, Homo sapiens; conditions: Homo sapiens, ES4;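 note: growth inhibition of human ES4 cells, read out by a cell viability assay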
# Description: SANGER: Inhibition of human ES4 cell growth in a cell viability assay.
# ES6 = format: functional, cell-based, Homo sapiens; conditions: Homo sapiens, ES6;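 note: growth inhibition of human ES6 cells, read out with a cell viability assay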
# Description: SANGER: Inhibition of human ES6 cell growth in a cell viability assay.
# GI-1 = format: functional, cell-based, Homo sapiens; conditions: Homo sapiens, GI-1;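 note: growth inhibition of human GI-1 cells, measured with a cell viability readout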
# Description: SANGER: Inhibition of human GI-1 cell growth in a cell viability assay.
# HCC1569 = format: functional, cell-based, Homo sapiens; conditions: Homo sapiens, HCC1569;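 note: growth inhibition of human HCC1569 cells, read out with a cell viability assay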
# Description: SANGER: Inhibition of human HCC1569 cell growth in a cell viability assay.
# HEL = format: functional, cell-based, Homo sapiens; conditions: Homo sapiens, HEL;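 note: growth inhibition of HEL cells, read out with a cell viability assay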
# Description: SANGER: Inhibition of human HEL cell growth in a cell viability assay.
# HOP-92 = format: functional, cell-based, Homo sapiens; conditions: Homo sapiens, HOP-92;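 note: cell viability readout, with IC50 reflecting inhibition of HOP-92 cell growth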
# Description: SANGER: Inhibition of human HOP-92 cell growth in a cell viability assay.
# HSC-2 = format: functional, cell-based, Homo sapiens; conditions: Homo sapiens, HSC-2;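 note: growth inhibition of human HSC-2 cells, read out by a cell viability assay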
# Description: SANGER: Inhibition of human HSC-2 cell growth in a cell viability assay.
# HT = format: functional, cell-based; conditions: Homo sapiens
# Description: SANGER: Inhibition of human HT cell growth in a cell viability assay.
# HT-144 = format: functional, cell-based, Homo sapiens; conditions: Homo sapiens, HT-144
# Description: SANGER: Inhibition of human HT-144 cell growth in a cell viability assay.
# IA-LM = format: functional, cell-based, Homo sapiens; conditions: Homo sapiens, IA-LM;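 note: cell viability assay measuring growth inhibition of human IA-LM cells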
# Description: SANGER: Inhibition of human IA-LM cell growth in a cell viability assay.
# JEG-3 = format: functional, cell-based, Homo sapiens; conditions: Homo sapiens, JEG-3;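 note: growth inhibition of human JEG-3 cells, read out with a cell viability assay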
# Description: SANGER: Inhibition of human JEG-3 cell growth in a cell viability assay.
# JVM-2 = format: functional, cell-based; conditions: Homo sapiens;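 note: growth inhibition of JVM-2 cells determined by a cell viability assay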
# Description: SANGER: Inhibition of human JVM-2 cell growth in a cell viability assay.
# KARPAS-45 = format: functional, cell-based; conditions: Homo sapiens;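 note: inhibition of cell line growth, read out through a viability assay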
# Description: SANGER: Inhibition of human KARPAS-45 cell growth in a cell viability assay.
# KURAMOCHI = format: functional, cell-based; conditions: Homo sapiens;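 note: growth inhibition of KURAMOCHI cells, read out with a cell viability assay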
# Description: SANGER: Inhibition of human KURAMOCHI cell growth in a cell viability assay.
# KYSE-150 cell line = format: functional, cell-based, Homo sapiens; conditions: Homo sapiens, KYSE-150;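 note: growth inhibition of human KYSE-150 cells, read out with a cell viability assay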
# Description: SANGER: Inhibition of human KYSE-150 cell growth in a cell viability assay.
# KYSE-410 = format: functional, cell-based, Homo sapiens; conditions: Homo sapiens, KYSE-410;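 note: growth inhibition of KYSE-410 cells, measured through a cell viability readout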
# Description: SANGER: Inhibition of human KYSE-410 cell growth in a cell viability assay.
# LB2518-MEL = format: functional, cell-based, Homo sapiens; conditions: Homo sapiens, LB2518-MEL;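 note: growth inhibition of human LB2518-MEL cells, measured with a cell viability assay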
# Description: SANGER: Inhibition of human LB2518-MEL cell growth in a cell viability assay.
# LCLC-97TM1 = format: functional, cell-based, Homo sapiens; conditions: Homo sapiens, LCLC-97TM1;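 note: cell viability assay measuring growth inhibition of human LCLC-97TM1 cells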
# Description: SANGER: Inhibition of human LCLC-97TM1 cell growth in a cell viability assay.
# LS-411N = format: functional, cell-based, Homo sapiens; conditions: Homo sapiens, LS-411N
# MFE-280 = format: functional, cell-based, Homo sapiens; conditions: Homo sapiens, MFE-280;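 note: growth inhibition of MFE-280 cells, determined with a cell viability readout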
# Description: SANGER: Inhibition of human MFE-280 cell growth in a cell viability assay.
# MFM-223 = format: functional, cell-based, Homo sapiens; conditions: Homo sapiens, MFM-223
# Description: SANGER: Inhibition of human MFM-223 cell growth in a cell viability assay.
# MN-60 = format: functional, cell-based; conditions: Homo sapiens;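 note: growth inhibition of the MN-60 cell line, determined with a cell viability assay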
# Description: SANGER: Inhibition of human MN-60 cell growth in a cell viability assay.
# MZ1-PC = format: functional, cell-based, Homo sapiens; conditions: Homo sapiens, MZ1-PC;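 note: cell viability assay measuring growth inhibition of human MZ1-PC cells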
# Description: SANGER: Inhibition of human MZ1-PC cell growth in a cell viability assay.
# NCI-H1623 = format: functional, cell-based, Homo sapiens; conditions: Homo sapiens, NCI-H1623;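 note: cell viability assay used as the read-out for growth inhibition of NCI-H1623 cells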
# Description: SANGER: Inhibition of human NCI-H1623 cell growth in a cell viability assay.
# NCI-H1648 = format: functional, cell-based, Homo sapiens; conditions: Homo sapiens, NCI-H1648;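 note: cell viability assay measuring inhibition of NCI-H1648 cell growth, from the Sanger screening data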
# Description: SANGER: Inhibition of human NCI-H1648 cell growth in a cell viability assay.
# NCI-H1650 = format: functional, cell-based, Homo sapiens; conditions: Homo sapiens, NCI-H1650;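 note: growth inhibition of human NCI-H1650 cells measured by a cell viability assay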
# Description: SANGER: Inhibition of human NCI-H1650 cell growth in a cell viability assay.
# NCI-H2342 = format: functional, cell-based; conditions: Homo sapiens;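 note: growth inhibition of the cancer cell line, determined with a cell viability assay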
# Description: SANGER: Inhibition of human NCI-H2342 cell growth in a cell viability assay.
# NCI-H441 = format: functional, cell-based; conditions: Homo sapiens;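 note: growth inhibition of NCI-H441 cells, read out with a cell viability assay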
# Description: SANGER: Inhibition of human NCI-H441 cell growth in a cell viability assay.
# NCI-H446 = format: functional, cell-based; conditions: Homo sapiens;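 note: growth inhibition of NCI-H446 cells determined by a cell viability assay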
# Description: SANGER: Inhibition of human NCI-H446 cell growth in a cell viability assay.
# NCI-H720 = format: functional, cell-based; conditions: Homo sapiens;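 note: growth inhibition of human NCI-H720 cells determined by a cell viability assay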
# Description: SANGER: Inhibition of human NCI-H720 cell growth in a cell viability assay.
# SNU-5 = format: functional, cell-based; conditions: Homo sapiens;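 note: cell viability readout used to measure growth inhibition in human NCI-SNU-5 cells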
# Description: SANGER: Inhibition of human NCI-SNU-5 cell growth in a cell viability assay.
# NMC-G1 = format: functional, cell-based, Homo sapiens; conditions: Homo sapiens, NMC-G1;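 note: growth inhibition of the NMC-G1 cell line, measured with a cell viability read-out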
# Description: SANGER: Inhibition of human NMC-G1 cell growth in a cell viability assay.
# OVCAR-4 = format: functional, cell-based, Homo sapiens; conditions: Homo sapiens, OVCAR-4;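 note: growth inhibition of human OVCAR-4 cells, measured with a cell viability assay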
# Description: SANGER: Inhibition of human OVCAR-4 cell growth in a cell viability assay.
# PFSK-1 = format: functional, cell-based, Homo sapiens; conditions: Homo sapiens, PFSK-1;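 note: cell viability assay measuring how strongly compounds suppress growth of human PFSK-1 cells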
# Description: SANGER: Inhibition of human PFSK-1 cell growth in a cell viability assay.
# SBC-1 = format: functional, cell-based; conditions: Homo sapiens;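 note: cell viability assay measuring growth inhibition of the SBC-1 cell line, IC50 being the concentration that halves growth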
# Description: SANGER: Inhibition of human SBC-1 cell growth in a cell viability assay.
# SK-LU-1 = format: functional, cell-based, Homo sapiens; conditions: Homo sapiens, SK-LU-1;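 note: cell viability assay measuring growth inhibition of human SK-LU-1 cells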
# Description: SANGER: Inhibition of human SK-LU-1 cell growth in a cell viability assay.
# SK-MEL-30 = format: functional, cell-based; conditions: Homo sapiens;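 note: growth inhibition of SK-MEL-30 cells, determined with a cell viability assay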
# Description: SANGER: Inhibition of human SK-MEL-30 cell growth in a cell viability assay.
# SNU-387 = format: functional, cell-based, Homo sapiens; conditions: Homo sapiens, SNU-387
# Description: SANGER: Inhibition of human SNU-387 cell growth in a cell viability assay.
# SW626 = format: functional, cell-based, Homo sapiens; conditions: Homo sapiens, SW626;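 note: growth inhibition of SW626 cells, measured with a cell viability assay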
# Description: SANGER: Inhibition of human SW626 cell growth in a cell viability assay.
# SW837 = format: functional, cell-based, Homo sapiens; conditions: Homo sapiens, SW837;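 note: growth inhibition of SW837 cells, determined with a cell viability assay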
# Description: SANGER: Inhibition of human SW837 cell growth in a cell viability assay.
# SAOS-2 = format: functional, cell-based, Homo sapiens; conditions: Homo sapiens, SAOS-2;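 note: growth inhibition of human Saos-2 cells determined by a cell viability assay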
# Description: SANGER: Inhibition of human Saos-2 cell growth in a cell viability assay.
# 8-MG-BA = format: functional, cell-based, Homo sapiens; conditions: Homo sapiens, 8-MG-BA;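 note: growth inhibition of 8-MG-BA cells, read out with a cell viability assay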
# Description: SANGER: Inhibition of human 8-MG-BA cell growth in a cell viability assay.
# 8505C = format: functional, cell-based, Homo sapiens; conditions: Homo sapiens, 8505C
# Description: SANGER: Inhibition of human 8505C cell growth in a cell viability assay.
# A101D = format: functional, cell-based, Homo sapiens; conditions: Homo sapiens, A101D;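 note: growth inhibition of the cell line, measured with a viability assay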
# Description: SANGER: Inhibition of human A101D cell growth in a cell viability assay.
# ACHN = format: functional, cell-based, Homo sapiens; conditions: Homo sapiens, ACHN;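 note: cell viability read-out used to gauge how strongly growth of human ACHN cells is suppressed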
# Description: SANGER: Inhibition of human ACHN cell growth in a cell viability assay.
# BT-20 = format: functional, cell-based, Homo sapiens; conditions: Homo sapiens, BT-20;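 note: cell viability assay measuring suppression of growth in human BT-20 cells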
# Description: SANGER: Inhibition of human BT-20 cell growth in a cell viability assay.
# VM-CUB-1 = format: functional, cell-based; conditions: Homo sapiens;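 note: cell viability assay measuring growth inhibition of the human VM-CUB-1 cell line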
# Description: SANGER: Inhibition of human VM-CUB-1 cell growth in a cell viability assay.
# SW1417 = format: functional, cell-based, Homo sapiens; conditions: Homo sapiens, SW1417;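 note: growth inhibition of human SW1417 cells, read out with a cell viability assay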
# Description: SANGER: Inhibition of human SW1417 cell growth in a cell viability assay.
# U2OS = format: functional, cell-based, Homo sapiens, U-2-OS; conditions: Homo sapiens, U2OS;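 note: growth inhibition of human U-2-OS cells, determined with a cell viability assay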
# Description: SANGER: Inhibition of human U-2-OS cell growth in a cell viability assay.
smiles,measurement,setting,value
COC(=O)CNC(=O)C(=O)OC,IC50,CTV-1,468 µM
same,IC50,DB,52.4 µM
same,IC50,DOHH-2,281 µM
same,IC50,EFM-19,1080 µM
same,IC50,ES4,1150 µM
same,IC50,ES6,3540 µM
same,IC50,GI-1,146 µM
same,IC50,HCC1569,1680 µM
same,IC50,HEL,197 µM
same,IC50,HOP-92,1960 µM
same,IC50,HSC-2,504 µM
same,IC50,HT,132 µM
same,IC50,HT-144,177 µM
same,IC50,IA-LM,153 µM
same,IC50,JEG-3,908 µM
same,IC50,JVM-2,> 4000 µM
same,IC50,KARPAS-45,484 µM
same,IC50,KURAMOCHI,1570 µM
same,IC50,KYSE-150 cell line,1330 µM
same,IC50,KYSE-410,20.8 µM
same,IC50,LB2518-MEL,235 µM
same,IC50,LCLC-97TM1,200 µM
same,IC50,LS-411N,> 4000 µM
same,IC50,MFE-280,1030 µM
same,IC50,MFM-223,> 4000 µM
same,IC50,MN-60,147 µM
same,IC50,MZ1-PC,46 µM
same,IC50,NCI-H1623,117 µM
same,IC50,NCI-H1648,1670 µM
same,IC50,NCI-H1650,329 µM
same,IC50,NCI-H2342,104 µM
same,IC50,NCI-H441,839 µM
same,IC50,NCI-H446,646 µM
same,IC50,NCI-H720,> 4000 µM
same,IC50,SNU-5,> 4000 µM
same,IC50,NMC-G1,466 µM
same,IC50,OVCAR-4,93.8 µM
same,IC50,PFSK-1,274 µM
same,IC50,SBC-1,1410 µM
same,IC50,SK-LU-1,66 µM
same,IC50,SK-MEL-30,626 µM
same,IC50,SNU-387,220 µM
same,IC50,SW626,1840 µM
same,IC50,SW837,858 µM
same,IC50,SAOS-2,193 µM
same,IC50,8-MG-BA,126 µM
same,IC50,8505C,678 µM
same,IC50,A101D,163 µM
same,IC50,ACHN,297 µM
same,IC50,BT-20,947 µM
same,IC50,VM-CUB-1,151 µM
O=c1cc(-c2cccc3c2Sc2ccccc2S3)oc(N2CCOCC2)c1 [KU-55933],IC50,DB,> 10 µM
same,IC50,DOHH-2,> 10 µM
same,IC50,EFM-19,> 10 µM
same,IC50,ES4,> 10 µM
same,IC50,ES6,> 10 µM
same,IC50,GI-1,> 10 µM
same,IC50,HCC1569,> 10 µM
same,IC50,HEL,> 10 µM
same,IC50,HOP-92,> 10 µM
same,IC50,HSC-2,> 10 µM
same,IC50,HT,> 10 µM
same,IC50,HT-144,> 10 µM
same,IC50,IA-LM,> 10 µM
same,IC50,JEG-3,> 10 µM
same,IC50,KURAMOCHI,> 10 µM
same,IC50,KYSE-150 cell line,> 10 µM
same,IC50,KYSE-410,> 10 µM
same,IC50,LB2518-MEL,> 10 µM
same,IC50,LCLC-97TM1,> 10 µM
same,IC50,LS-411N,> 10 µM
same,IC50,MFE-280,> 10 µM
same,IC50,MFM-223,> 10 µM
same,IC50,MN-60,> 10 µM
same,IC50,MZ1-PC,> 10 µM
same,IC50,NCI-H1623,> 10 µM
same,IC50,NCI-H1648,> 10 µM
same,IC50,NCI-H1650,> 10 µM
same,IC50,NCI-H2342,> 10 µM
same,IC50,NCI-H441,> 10 µM
same,IC50,NCI-H446,> 10 µM
same,IC50,NMC-G1,> 10 µM
same,IC50,OVCAR-4,> 10 µM
same,IC50,PFSK-1,> 10 µM
same,IC50,SK-LU-1,> 10 µM
same,IC50,SK-MEL-30,> 10 µM
same,IC50,SNU-387,> 10 µM
same,IC50,SW1417,> 10 µM
same,IC50,SW626,> 10 µM
same,IC50,SW837,> 10 µM
same,IC50,SAOS-2,> 10 µM
same,IC50,8-MG-BA,> 10 µM
same,IC50,8505C,> 10 µM
same,IC50,A101D,> 10 µM
same,IC50,ACHN,> 10 µM
same,IC50,BT-20,> 10 µM
same,IC50,U2OS,> 10 µM
same,IC50,VM-CUB-1,> 10 µM
